Experimental data published in the supplement of paper PMC10307832.

Experiments:
Assay in all cases: relative viability (nuclei count vs DMSO), 5 days (fraction); higher = more cells survive
[1] = compound: C/C(=N\NC(=S)N1CCC1)/C2=CC=CC=N2 + C[C@@H](Oc1cc(-c2cnn(C3CCNCC3)c2)cnc1N)c1c(Cl)ccc(F)c1Cl [Crizotinib] (partner 1 µM)
How it was run: (§1)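 The day after seeding in 1536-well plates, lung cancer cell lines were treated by pin tool with a single drug, or with a fixed anchor-drug dose together with five library-drug doses (not always all listed) in √10 steps. After 5 days, a combined fix-and-stain solution (final 0.05% Triton X-100, 1% formaldehyde, 1 ug/ml Hoechst) was added. Nuclei counted on 4× images gave relative viability as treated counts over vehicle counts, reported as the median of duplicate plates.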

[2] = compound: C/C(=N\NC(=S)N1CCC1)/C2=CC=CC=N2 + COc1cccc2cc(-c3nc([C@H]4CC[C@H](C(=O)O)CC4)n4ncnc(N)c34)[nH]c12 [OSI-027] (partner 0.5 µM)
How it was run: as §1

[3] = compound: C/C(=N\NC(=S)N1CCC1)/C2=CC=CC=N2 + C[C@]1(O)C[C@@H](c2nc(-c3ccc4ccc(-c5ccccc5)nc4c3)c3c(N)nccn32)C1 [Linsitinib] (partner 1 µM)
How it was run: as §1

[4] = compound: C/C(=N\NC(=S)N1CCC1)/C2=CC=CC=N2 + Cc1cc(Nc2cc(N3CCN(C)CC3)nc(Sc3ccc(NC(=O)C4CC4)cc3)n2)n[nH]1 [Tozasertib] (partner 0.1 µM)
How it was run: as §1

Row | Cell Line | relative viability ([1]; first compound 0.05 µM) | relative viability ([1]; first compound 0.1581 µM) | relative viability ([1]; first compound 0.5 µM) | relative viability ([1]; first compound 1.581 µM) | relative viability ([1]; first compound 5 µM) | relative viability ([2]; first compound 0.05 µM) | relative viability ([2]; first compound 0.1581 µM) | relative viability ([2]; first compound 0.5 µM) | relative viability ([2]; first compound 1.581 µM) | relative viability ([2]; first compound 5 µM) | relative viability ([3]; first compound 0.05 µM) | relative viability ([3]; first compound 0.1581 µM) | relative viability ([3]; first compound 0.5 µM) | relative viability ([3]; first compound 1.581 µM) | relative viability ([3]; first compound 5 µM) | relative viability ([4]; first compound 0.05 µM) | relative viability ([4]; first compound 0.1581 µM) | relative viability ([4]; first compound 0.5 µM) | relative viability ([4]; first compound 1.581 µM) | relative viability ([4]; first compound 5 µM)
1 | HCC-78 | 0.338 | 0.251 | 0.237 | 0.142 | 0.167 | 0.299 | 0.354 | 0.332 | 0.237 | 0.23 | 0.299 | 0.251 | 0.189 | 0.161 | 0.175 | 0.332 | 0.205 | 0.248 | 0.206 | 0.202
2 | NCI-H2405 | 0.26 | 0.29 | 0.307 | 0.25 | 0.258 | 0.26 | 0.238 | 0.229 | 0.226 | 0.24 | 0.193 | 0.207 | 0.31 | 0.225 | 0.223 | 0.24 | 0.286 | 0.266 | 0.239 | 0.253
3 | SK-LU-1 | 0.277 | 0.191 | 0.203 | 0.19 | 0.208 | 0.145 | 0.136 | 0.131 | 0.124 | 0.151 | 0.274 | 0.231 | 0.224 | 0.202 | 0.21 | 0.141 | 0.124 | 0.174 | 0.0952 | 0.136
4 | EMC-BAC-2 | 0.365 | 0.336 | 0.16 | 0.153 | 0.142 | 0.199 | 0.22 | 0.233 | 0.189 | 0.209 | 0.365 | 0.56 | 0.144 | 0.178 | 0.191 | 0.176 | 0.187 | 0.147 | 0.151 | 0.167
5 | NCI-H596 | 0.896 | 0.302 | 0.242 | 0.251 | 0.258 | 0.259 | 0.253 | 0.281 | 0.226 | 0.263 | 0.912 | 0.344 | 0.251 | 0.208 | 0.257 | 0.445 | 0.34 | 0.191 | 0.195 | 0.2
6 | LCLC-97TM1 | 0.155 | 0.307 | 0.103 | 0.0898 | 0.119 | 0.111 | 0.175 | 0.185 | 0.138 | 0.158 | 0.117 | 0.176 | 0.1 | 0.105 | 0.108 | 0.193 | 0.218 | 0.105 | 0.128 | 0.165
7 | H3255 | 0.289 | 0.309 | 0.288 | 0.222 | 0.189 | 0.364 | 0.293 | 0.25 | 0.254 | 0.29 | 0.278 | 0.269 | 0.276 | 0.197 | 0.21 | 0.331 | 0.167 | 0.288 | 0.193 | 0.232
8 | LXF-289 | 0.417 | 0.287 | 0.24 | 0.168 | 0.121 | 0.2 | 0.223 | 0.222 | 0.146 | 0.0943 | 0.508 | 0.325 | 0.248 | 0.226 | 0.131 | 0.126 | 0.108 | 0.114 | 0.124 | 0.0738
